Columns and labels:
PDE4B3 = biological target: T1, PDE4B3 (Mus musculus, UniProt Q8VBU5); assay: 5FOA growth assay in fission yeast strain expressing PDE4B3; format: cell-based, Murine; conditions: for Composite Z score, PDE4B3: high throughput 5FOA growth screen
T1 construct: targets used in the assays are full-length proteins (as opposed to simply the catalytic domain); expressed in transfected cells; host or cells: Schizosaccharomyces pombe, PDE gene integrated in place of cgs2
T1 sequence (Q8VBU5 1-721): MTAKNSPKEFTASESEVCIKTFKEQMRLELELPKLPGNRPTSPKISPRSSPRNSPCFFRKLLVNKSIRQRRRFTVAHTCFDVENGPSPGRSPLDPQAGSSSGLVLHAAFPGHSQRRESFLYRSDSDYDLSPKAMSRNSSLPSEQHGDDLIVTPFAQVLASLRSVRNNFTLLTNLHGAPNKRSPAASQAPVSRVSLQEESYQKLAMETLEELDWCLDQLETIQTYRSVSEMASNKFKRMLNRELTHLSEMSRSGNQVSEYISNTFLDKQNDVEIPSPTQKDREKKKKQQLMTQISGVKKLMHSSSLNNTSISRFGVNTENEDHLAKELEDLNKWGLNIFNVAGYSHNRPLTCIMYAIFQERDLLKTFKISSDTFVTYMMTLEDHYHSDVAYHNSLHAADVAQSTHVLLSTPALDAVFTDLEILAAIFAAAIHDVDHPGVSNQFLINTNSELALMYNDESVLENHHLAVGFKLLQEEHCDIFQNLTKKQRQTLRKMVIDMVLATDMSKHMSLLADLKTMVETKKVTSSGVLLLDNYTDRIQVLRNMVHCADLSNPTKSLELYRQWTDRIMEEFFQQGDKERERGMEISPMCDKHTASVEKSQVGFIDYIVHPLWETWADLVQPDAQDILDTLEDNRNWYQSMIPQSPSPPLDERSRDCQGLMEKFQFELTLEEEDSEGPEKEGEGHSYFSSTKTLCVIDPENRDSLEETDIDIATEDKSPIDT
Summary of the method: (§1)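 Fission yeast strains carrying mouse PDE4A1 or PDE4B3 and an fbp1-ura4 reporter were pregrown in EMM with 0.5–2.5 mM cAMP, then seeded at 0.5–4×10^5 cells/ml in 5FOA medium with compound. Growth was read as OD600 after 48 h at 30° C; composite Z scores were derived.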

PDE4A1 = biological target: T2, PDE4A1 (Mus musculus, UniProt O89084); assay: 5FOA growth assay (high throughput screen, ED50) in fission yeast strain expressing PDE4A1; format: cell-based; conditions: for Composite Z score, PDE4A1: high throughput 5FOA growth screen, greater than 8.53 = statistically-significant inhibitor; for 1 Assay (20 uM) 4A1: PDE 4A1
T2 construct: targets used in the assays are full-length proteins (as opposed to simply the catalytic domain); expressed in transfected cells; host or cells: Schizosaccharomyces pombe, PDE gene integrated in place of cgs2
T2 sequence (O89084 1-610 isoform O89084-2): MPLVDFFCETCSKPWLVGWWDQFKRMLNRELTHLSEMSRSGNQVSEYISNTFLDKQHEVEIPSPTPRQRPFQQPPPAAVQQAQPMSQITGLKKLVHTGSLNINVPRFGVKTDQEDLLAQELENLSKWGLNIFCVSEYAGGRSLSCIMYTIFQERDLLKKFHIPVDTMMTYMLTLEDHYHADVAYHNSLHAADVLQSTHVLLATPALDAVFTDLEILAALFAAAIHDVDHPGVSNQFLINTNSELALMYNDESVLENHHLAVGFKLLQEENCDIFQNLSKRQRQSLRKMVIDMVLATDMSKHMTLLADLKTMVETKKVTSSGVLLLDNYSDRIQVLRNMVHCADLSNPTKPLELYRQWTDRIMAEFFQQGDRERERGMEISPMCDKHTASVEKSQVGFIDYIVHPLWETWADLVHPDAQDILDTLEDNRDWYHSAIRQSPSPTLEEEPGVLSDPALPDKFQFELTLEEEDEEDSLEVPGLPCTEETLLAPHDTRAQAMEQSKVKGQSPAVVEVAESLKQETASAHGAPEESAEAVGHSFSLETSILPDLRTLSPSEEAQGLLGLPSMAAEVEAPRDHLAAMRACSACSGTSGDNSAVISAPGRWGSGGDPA
Summary of the method: as §1

[1] = system: PDE4A, PDE4B, PDE4D, PDE7A, PDE7B, PDE8A, PDE3A; assay: Summary of PDE inhibitor profile; set-up: key to PDE inhibitor profile (Table 17): (1): Strong PDE4A, PDE4B inhibitor; (2): Strong PDE4A inhibitor; (3): Strong PDE4B, moderate PDE4A inhibitor; (4): Moderate PDE4A, PDE4B inhibitor; (5): Moderate PDE4B inhibitor; key to inhibitor class, Table 15: (1): Strong PDE4A5 inhibitor; (2): Strong PDE4A, 4B inhibitor; Moderate PDE4D inhibitor; (3): Strong PDE4A. 4B inhibitor; (4): Strong PDE4A, 4B, PDE7A inhibitor: Weak PDE4D inhibitor; conditions: for PDE inhibitor profile (Table 17): overall classification, Table 17 footnotes

Structure (SMILES) | Composite Z score, PDE4B3 (PDE4B3) | Composite Z score, PDE4A1 (PDE4A1) | further results
CC(C)CC(Nc1ncnc2sc3c(c12)CCC3)C(=O)O (stereo not drawn) [Compound 2012H20] | 0.1698 | 0.407 | 
CCCCN(CC)C(=O)c1sc2ncnc(N3CCN(c4ccc(OC)cc4)CC3)c2c1C [Compound 2007H06] | 0.3145 | 0.0978 | 
Cc1nc(NCCc2ccccc2)c2c3c(sc2n1)CCCC3 [Compound 2008G09] | 0.0156 | 0.1429 | 
C=Cn1c2ccccc2c2nc3ccccc3nc21 [2033, H06] |  |  | 1 Assay (20 uM) 4B3 (PDE4B3; PDE 4B3): 103.11 ND ND ND ND; PDE inhibitor profile (Table 17) [1]: 2033, H06 (4); 1 Assay (20 uM) 4A1 (PDE4A1): 29.62 ND ND ND ND
CCCCn1c2ccccc2c2nc3ccccc3nc21 [2013, I20] |  |  | 1 Assay (20 uM) 4B3 (PDE4B3; PDE 4B3): 0.29 ND ND ND ND; PDE inhibitor profile (Table 17) [1]: 2013, I20 (1); 1 Assay (20 uM) 4A1 (PDE4A1): 80.55 ND ND ND ND
O=C(O)CCNc1ncnc2sc3c(c12)CCCC3 [Compound 2012O16] | −0.716 | 2.8 | 
Cc1c(C(=O)Nc2ccc(F)cc2F)sc2ncnc(N(C)c3ccccc3)c12 [Compound 58-9] | 78.662 | 25.972 | 
O=C(/C=C/c1ccccc1)Nc1ncnc2sc3c(c12)CCC3 [Compound 2008K11] | 0.0615 | −1.395 | 
COC(=O)C1/C(=C/c2cccc(OC)c2O)C(=O)N(c2ccccc2F)C1C (stereo not drawn) [2008, C21] |  |  | 1 Assay (20 uM) 4B3 (PDE4B3): 24.16 ND ND ND ND; inhibitor class, Table 15 [1]: 2008, C21 (2)
COC(=O)C1=C(C)N(c2ccccc2)/C(=C/c2cccs2)C1=O [2008, K19] |  |  | 1 Assay (20 uM) 4B3 (PDE4B3): −0.61 ND ND ND ND; inhibitor class, Table 15 [1]: 2008, K19 (1)
CCOC(CNc1nc(C)nc2sc3c(c12)CCCC3)OCC [Compound 2040D04] | 4.66 | 3.1355 | 
COC(=O)C1=C(C)N(c2ccc(C(C)C)cc2)C(=O)/C1=C\c1ccco1 [2008, 019] |  |  | 1 Assay (20 uM) 4B3 (PDE4B3): −2.99 ND ND ND ND; inhibitor class, Table 15 [1]: 2008, 019 (1)
COc1ccc(CCNc2ncnc3sc4c(c23)CCCC4)cc1 [Compound 2012B19] | 43.053 | 32.257 | 
CCOC(=O)c1sc2nc(Cc3ccccc3)nc(NCCC3CCCCC3)c2c1C [Compound 2040F07] | 5.0875 | 3.8961 | 
CCOC(=O)c1sc2nc(C)nc(N3CCC(C)CC3)c2c1C [Compound 2007D06] | 0.2826 | −0.396 | 
CNc1nc(=S)[nH]c2sc3c(c12)CCCC3 [2054 E08] | 0.2798 | −1.088 | 
COc1ccccc1CNC(=O)c1sc2ncnc(N3CCN(c4ccccc4F)CC3)c2c1C [2041 E21] | −0.408 | 1.9156 | 
Cc1cc(C)c(C)c(S(=O)(=O)N2CCN(c3ncnc4sc5c(c34)CCCC5)CC2)c1C [Compound 2012L13] | −0.543 | 1.67 | 
CC1CC(=O)N(c2ncnc3sc4c(c23)CCCC4)N1 (stereo not drawn) [2054 E16] | 0.62 | 0.2389 | 
c1csc(CCNc2ncnc3sc4c(c23)CCC4)c1 [Compound 2005M12] | 0.0838 | −1.628 | 
CCOC(=O)c1sc2nc(C)nc(N(C)Cc3ccccc3)c2c1C [Compound 2007L04] | 0.2682 | 0.6949 | 
O=C(Nc1ncnc2sc3c(c12)CCCCC3)c1ccc(F)cc1 [Compound 2012F09] | 35.319 | 34.225 | 

Continued, in another order:

Composite Z score, PDE4B3 (PDE4B3) | Composite Z score, PDE4A1 (PDE4A1) | Structure (SMILES) | further results
33.162 | −0.629 | Cc1c(C(=O)N(C)Cc2ccccc2)sc2ncnc(N3CCN(c4ccccc4)CC3)c12 [Compound 2041G21] | 
3.2214 | 8.6742 | CCN(CC)c1nc(C)nc2sc(C(=O)Nc3cc(Cl)ccc3OC)c(C)c12 [Compound 2040L12] | 
12.239 | 7.3705 | CCN(CC)c1nc(C)nc2sc(C(=O)N3CCCCCC3)c(C)c12 [Compound 2040N12] | 
−0.456 | 11.659 | CCC(C)NC(=O)c1sc2nc(C)nc(N(C)c3ccc(C(C)C)cc3)c2c1C (stereo not drawn) [Compound 2041K04] | 
9.0572 | 3.7863 | CCNc1nc(SCC(=O)OCC)nc2sc3c(c12)CCC(C)C3 (stereo not drawn) [Compound 2053H16] | 
16.5 | 11.225 | Cc1nc(N2CCCCC2)c2c(C)c(C(=O)Nc3cccc(C(F)(F)F)c3)sc2n1 [Compound 2040F10] | 
0.9277 | 3.5005 | Cc1c(C(=O)NCCC(C)C)sc2ncnc(N3CCOCC3)c12 [Compound 2040F13] | 
0.0285 | −0.307 | CCNc1nc(SCC(=O)NC(=O)NCc2ccccc2)nc2sc3c(c12)CCN(C)C3 [Compound 2054N05] | 
4.5126 | 19.619 | COc1cccc(NC(=O)c2sc3ncnc(N4CCc5ccccc5C4)c3c2C)c1 [Compound 2041K21] | 
−0.998 | 1.1862 | c1nc(NCCCN2CCOCC2)c2c3c(sc2n1)CCCC3 [Compound 2051N22] | 
1.0041 | 12.157 | CCOC(=O)c1ccccc1NC(=O)c1sc2nc(C)nc(N(CC)CC)c2c1C [Compound 2040P12] | 
−1.056 | 14.925 | Cc1c(C(=O)NCCC2CCCCC2)sc2ncnc(N3CCCCC3C)c12 (stereo not drawn) [Compound 2040H10] | 
−0.545 | 5.2983 | COc1ccc(NC(=O)c2sc3nc(C)nc(N(C)c4ccc(C(C)C)cc4)c3c2C)c(OC)c1 [Compound 2041I04] | 
5.3667 | 7.0857 | CCN(CC)c1ncnc2sc(C(=O)N(C)C3CCCCC3)c(C)c12 [Compound 2040J12] | 
3.1975 | 12.024 | Cc1nc(N2CCC(C)CC2)c2c(C)c(C(=O)N3CCN(c4ccc(F)cc4)CC3)sc2n1 [Compound 2040N10] | 
7.48 | 0.2744 | Cc1c(C(=O)N2CCCCCC2)sc2ncnc(N3CCN(c4ccccc4)CC3)c12 [Compound 2041I21] | 
0.936 | 2.4965 | OCCNc1ncnc2sc3c(c12)CCCC3 [Compound 2051H22] | 
−0.211 | 2.3863 | CCNc1nc(SCc2ccc(Cl)cc2)nc2sc3c(c12)CCN(C)C3 [Compound 2054P05] | 
1.7278 | 3.0133 | COc1cc(OC)c(NC(=O)c2sc3ncnc(N4CCCCC4C)c3c2C)cc1Cl (stereo not drawn) [Compound 2040J10] | 

— patent US20100227853A1, “INHIBITORS OF CYCLIC AMP PHOSPHODIESTERASES” (Trustees of Boston College, priority 2008, published 2010)
